Measured values from publication PMC7031696 (Cell chemical biology, 2019).
Read-outs that look alike come from different tables or passages of the source.

Key:
[1] = system: Plasmodium falciparum 3D7-A10 parasites; assay: Stage specificity assay (8-h exposure of synchronized stages, IC50^8h); type: cell-based; settings: for IC50: Plasmodium falciparum
[2] = system: asynchronous 3D7-A10 parasite cultures; assay: Standard 72-h exposure asexual blood stage susceptibility assay (IC50^72h); type: cell-based, Plasmodium falciparum; settings: Plasmodium falciparum, 3D7, 72 h, read-out: Overall (72hr assay) Mean IC50 (IC50^72h)
[3] = system: 3D7-MR4 trophozoite parasite-infected RBCs; assay: Metabolomic profiling (hydrophilic metabolite changes, UHPLC-MS); type: cell-based, Plasmodium falciparum

- Ratio lowest IC50 8hr/IC50 72hr ([1]; 3D7-A10): 0.6
- IC50 [2]: 105 nM
SMILES: COc1cncc(-c2cncc(N3CCN(c4ccncc4)CC3)n2)c1 [MMV085071]
- IC50 ([1]; 3D7, read-out: Early rings Mean IC50 (IC50^8h), 8-h exposure 0–8 hr, 3D7-A10, survival at 60 h): 893 nM
- IC50 ([1]; 3D7, read-out: Early trophozoites Mean IC50 (IC50^8h), 8-h exposure 16–24 hr, 3D7-A10, survival at 60 h): 61.1 nM
- IC50 ([1]; 3D7, read-out: Late rings Mean IC50 (IC50^8h), 8-h exposure 8–16 hr, 3D7-A10, survival at 60 h): 492 nM
- IC50 ([1]; 3D7, read-out: Late trophozoites Mean IC50 (IC50^8h), 8-h exposure 24–32 hr, 3D7-A10, survival at 60 h): 81.4 nM
- IC50 ([1]; 3D7, read-out: Schizonts Mean IC50 (IC50^8h), 8-h exposure 32–40 hr, 3D7-A10, survival at 60 h): 254 nM
- Peak Activity (Table S1) ([1]; stage(s) with the lowest IC50^8h): Trophs
- changes within the set of metabolites detected (low fold change group) ([3]; 10 × IC50^72h, 2.5 hr, trophozoites): did not induce major changes
- Log2(fold changes) 3-phosphoglycerate ([3]; metabolite 3-phosphoglycerate, log2 fold change): -0.3571
- Log2(fold changes) 4-Pyridoxic acid ([3]; metabolite 4-Pyridoxic acid, log2 fold change): 0.1725
- Log2(fold changes) 4-aminobutyrate ([3]; metabolite 4-aminobutyrate, log2 fold change): -0.2370
- Log2(fold changes) 4-phosphopantetheine ([3]; metabolite 4-phosphopantetheine, log2 fold change): 0.0000
- Log2(fold changes) 4-phosphopantothenate ([3]; metabolite 4-phosphopantothenate, log2 fold change): -0.0279
- Log2(fold changes) 5-aminopentanoic acid ([3]; metabolite 5-aminopentanoic acid, log2 fold change): 0.0000
- Log2(fold changes) 5-methyl-THF ([3]; metabolite 5-methyl-THF, log2 fold change): 0.0000
- Log2(fold changes) 5-phosphoribosyl-1-pyrophosphate ([3]; metabolite 5-phosphoribosyl-1-pyrophosphate, log2 fold change): 0.0000
- Log2(fold changes) 6-phospho-D-gluconate ([3]; metabolite 6-phospho-D-gluconate, log2 fold change): -0.0766
- Log2(fold change) HVDD ([3]; metabolite HVDD): 1.5471
- Log2(fold change) Hydroxyisocaproic acid ([3]; metabolite Hydroxyisocaproic acid): 0.0000
- Log2(fold change) IDP ([3]; metabolite IDP): 0.0000
- Log2(fold change) IMP ([3]; metabolite IMP): -0.0355
- Log2(fold change) Inositol ([3]; metabolite Inositol): 0.0000
- Log2(fold change) Isopentyl-PP ([3]; metabolite Isopentyl-PP): 0.0000
- Log2(fold change) L-arginino-succinate ([3]; metabolite L-arginino-succinate): 0.7586
- Log2(fold change) LD ([3]; metabolite LD): 1.2308
- Log2(fold change) Myristoyl/tetradecanoyl-CoA ([3]; metabolite Myristoyl/tetradecanoyl-CoA): 0.0000
- Log2(fold change) N-Acetyl-L-alanine ([3]; metabolite N-Acetyl-L-alanine): 0.1191
- Log2(fold change) N-acetyl-L-ornithine ([3]; metabolite N-acetyl-L-ornithine): 1.0380
- Log2(fold change) N-acetyl-glucosamine-1/6-phosphate ([3]; metabolite N-acetyl-glucosamine-1/6-phosphate): 0.0154
- Log2(fold change) N-acetyl-glutamate ([3]; metabolite N-acetyl-glutamate): 0.1593
- Log2(fold change) N-acetyl-glutamine ([3]; metabolite N-acetyl-glutamine): -0.2990
- Log2(fold change) N-carbamoyl-L-aspartate ([3]; metabolite N-carbamoyl-L-aspartate): 0.1424
- Log2(fold change) NAD+ ([3]; metabolite NAD+): 0.0189
- Log2(fold change) NADH ([3]; metabolite NADH): 0.0000
- Log2(fold change) NADP+ ([3]; metabolite NADP+): 0.1777
- Log2(fold change) NADPH ([3]; metabolite NADPH): 0.0000
- Log2(fold change) O-acetyl-L-serine ([3]; metabolite O-acetyl-L-serine): 0.0000
- Log2(fold change) Octoluse 8/1P ([3]; metabolite Octoluse 8/1P): 0.0000
- Log2(fold change) Octoluse Bisphosphate ([3]; metabolite Octoluse Bisphosphate): 0.0955
- Log2(fold change) PD ([3]; metabolite PD): 0.1245
- Log2(fold change) PE ([3]; metabolite PE): 0.4481
- Log2(fold change) PEE ([3]; metabolite PEE): 1.1300
- Log2(fold change) PEEK ([3]; metabolite PEEK): 1.3266
- Log2(fold change) PVNF ([3]; metabolite PVNF): 0.3702
- Log2(fold change) Pyroglutamic acid ([3]; metabolite Pyroglutamic acid): 0.0000
- Log2(fold change) Pyrophosphate ([3]; metabolite Pyrophosphate): 0.0000
- Log2(fold change) Ribose-5-phosphate ([3]; metabolite Ribose-5-phosphate): 0.0000
- Log2(fold change) S-adenosyl-L-homocysteine ([3]; metabolite S-adenosyl-L-homocysteine): -0.0131
- Log2(fold change) S-adenosyl-L-methioninamine ([3]; metabolite S-adenosyl-L-methioninamine): 0.0000
- Log2(fold change) S-adenosyl-L-methionine ([3]; metabolite S-adenosyl-L-methionine): 0.0000
- Log2(fold change) S-methyl-5'-thioadenosine ([3]; metabolite S-methyl-5'-thioadenosine): 0.0000
- Log2(fold change) SD ([3]; metabolite SD): 0.5330
- Log2(fold change) SDL ([3]; metabolite SDL): 0.1100
- Log2(fold change) SID ([3]; metabolite SID): -0.3348
- Log2(fold change) Sedoheptulose bisphosphate ([3]; metabolite Sedoheptulose bisphosphate): 0.0203
- Log2(fold change) Thiamine pyrophosphate ([3]; metabolite Thiamine pyrophosphate): 0.0000
- Log2(fold changes) UDP-D-glucose ([3]; metabolite UDP-D-glucose, log2 fold change): 0.0450
- Log2(fold changes) UDP-D-glucuronate ([3]; metabolite UDP-D-glucuronate, log2 fold change): 0.0222
- Log2(fold changes) UDP-N-acetyl-glucosamine ([3]; metabolite UDP-N-acetyl-glucosamine, log2 fold change): -0.1104
- Log2(fold changes) UDP ([3]; metabolite UDP, log2 fold change): 0.8151
- Log2(fold changes) UMP ([3]; metabolite UMP, log2 fold change): -0.2015
- Log2(fold changes) UTP ([3]; metabolite UTP, log2 fold change): -0.1278
- Log2(fold change) hydroxyphenylpyruvate ([3]; metabolite hydroxyphenylpyruvate): 0.0000
- Log2(fold change) hydroxyproline/Aminolevulinate ([3]; metabolite hydroxyproline/Aminolevulinate): -0.0385
- Log2(fold change) hypoxanthine ([3]; metabolite hypoxanthine): 0.0000
- Log2(fold change) indole ([3]; metabolite indole): 0.0000
- Log2(fold change) inosine ([3]; metabolite inosine): -0.0754
- Log2(fold change) isoleucine ([3]; metabolite isoleucine): -0.1140
- Log2(fold change) lactate ([3]; metabolite lactate): 0.0000
- Log2(fold change) leucine ([3]; metabolite leucine): -0.0775
- Log2(fold change) lysine ([3]; metabolite lysine): 0.0000
- Log2(fold change) malate ([3]; metabolite malate): -0.0512
- Log2(fold change) maleic acid ([3]; metabolite maleic acid): -0.0636
- Log2(fold change) methionine ([3]; metabolite methionine): 0.2308
- Log2(fold change) myo-inositol ([3]; metabolite myo-inositol): 0.0000
- Log2(fold change) nicotinamide mononucleotide ([3]; metabolite nicotinamide mononucleotide): 0.0000
- Log2(fold change) nicotinate ([3]; metabolite nicotinate): 0.2062
- Log2(fold change) ornithine ([3]; metabolite ornithine): 0.0000
- Log2(fold change) orotate ([3]; metabolite orotate): 0.3476
- Log2(fold change) orotidine-5'-phosphate ([3]; metabolite orotidine-5'-phosphate): 0.4326
- Log2(fold change) oxaloacetate ([3]; metabolite oxaloacetate): 0.0000
- Log2(fold change) p-aminobenzoate ([3]; metabolite p-aminobenzoate): 0.0000
- Log2(fold change) p-hydroxybenzoate ([3]; metabolite p-hydroxybenzoate): 0.0000
- Log2(fold change) pantothenate ([3]; metabolite pantothenate): -0.2410
- Log2(fold change) phenylalanine ([3]; metabolite phenylalanine): -0.1015
- Log2(fold change) phenylpyruvate ([3]; metabolite phenylpyruvate): 0.0000
- Log2(fold change) phosphoenolpyruvate ([3]; metabolite phosphoenolpyruvate): -0.3652
- Log2(fold change) prephenate ([3]; metabolite prephenate): 0.0000
- Log2(fold change) proline ([3]; metabolite proline): 0.0444
- Log2(fold change) pyridoxine ([3]; metabolite pyridoxine): 0.0000
- Log2(fold change) pyruvate ([3]; metabolite pyruvate): -0.4378
- Log2(fold change) riboflavin ([3]; metabolite riboflavin): -0.6618
- Log2(fold change) ribose ([3]; metabolite ribose): 0.0000
- Log2(fold change) ribose-phosphate ([3]; metabolite ribose-phosphate): -0.0725
- Log2(fold change) ribulose-5-phosphate ([3]; metabolite ribulose-5-phosphate): -0.2555
- Log2(fold change) serine ([3]; metabolite serine): 0.5038
- Log2(fold change) sn-glycerol-3-phosphate ([3]; metabolite sn-glycerol-3-phosphate): -0.1967
- Log2(fold change) succinate/Methylmalonic acid ([3]; metabolite succinate/Methylmalonic acid): -0.0635
- Log2(fold change) succinyl-CoA/methylmalonyl-CoA ([3]; metabolite succinyl-CoA/methylmalonyl-CoA): 0.0000
- Log2(fold change) taurine ([3]; metabolite taurine): 0.0000
- Log2(fold change) thiamine ([3]; metabolite thiamine): 0.0498
- Log2(fold change) threonine/homoserine ([3]; metabolite threonine/homoserine): 0.1750
- Log2(fold change) thymidine ([3]; metabolite thymidine): 0.0000
- Log2(fold changes) thymine ([3]; metabolite thymine, log2 fold change): 0.0000
- Log2(fold changes) trehalose-6-Phosphate ([3]; metabolite trehalose-6-Phosphate, log2 fold change): 0.0000
- Log2(fold changes) tryptophan ([3]; metabolite tryptophan, log2 fold change): -0.0120
- Log2(fold changes) tyrosine ([3]; metabolite tyrosine, log2 fold change): 0.0532
- Log2(fold changes) uridine ([3]; metabolite uridine, log2 fold change): 0.0000
